Data: EP0080819A1, “11-0-Alkylerythromycin A derivatives” (TAISHO PHARMACEUTICAL CO. LTD, priority 1981, dated 1983)

Test system: Staphylococcus aureus Smith No. 4
Assay: In vivo antibacterial activity (mouse protection test, number of surviving mice)
Conditions: oral, one hour after inoculation, male ddY mice, groups of 20, 10^7 cells per mouse, i.p., living mice for seven days after administration
Protocol: Male ddY mice weighing 20 - 23 g in groups 20 each were inoculated with Staphylococcus aureus Smith No. 4 (10^7 cells per mouse, i.p.). Erythromycin A was used as a control, the compound of formula I wherein R is methyl group("compound 1") was administered orally at one hour after inoculation, and the number of living mice for seven days after administration was calculated to determine the in vivo antibacterial activity.

CC[C@H]1OC(=O)[C@H](C)[C@@H](O[C@H]2C[C@@](C)(OC)[C@@H](O)[C@H](C)O2)[C@H](C)[C@@H](O[C@@H]2O[C@H](C)C[C@H](N(C)C)[C@H]2O)[C@](C)(O)C[C@@H](C)C(=O)[C@H](C)[C@@H](OC)[C@]1(C)O [Compound 1, 11-0-methylerythromycin A]
In vivo Antibacterial Activity [The Number of Surviving Mice] (dose 0.5 mg/mouse): 6 | In vivo Antibacterial Activity [The Number of Surviving Mice] (dose 1 mg/mouse): 12 | In vivo Antibacterial Activity [The Number of Surviving Mice] (dose 2 mg/mouse): 20 | In vivo Antibacterial Activity [The Number of Surviving Mice] (dose 4 mg/mouse): 20

CC[C@H]1OC(=O)[C@H](C)[C@@H](O[C@H]2C[C@@](C)(OC)[C@@H](O)[C@H](C)O2)[C@H](C)[C@@H](O[C@@H]2O[C@H](C)C[C@H](N(C)C)[C@H]2O)[C@](C)(O)C[C@@H](C)C(=O)[C@H](C)[C@@H](O)[C@]1(C)O [Erythromycin A]
In vivo Antibacterial Activity [The Number of Surviving Mice] (dose 0.5 mg/mouse): 4 | In vivo Antibacterial Activity [The Number of Surviving Mice] (dose 1 mg/mouse): 8 | In vivo Antibacterial Activity [The Number of Surviving Mice] (dose 2 mg/mouse): 18 | In vivo Antibacterial Activity [The Number of Surviving Mice] (dose 4 mg/mouse): 20
